From US12304890B2, “R-type pyridyloxycarboxylic acid, salt and ester derivative thereof, and preparation method therefor, and herbicidal composition and application thereof” (Qingdao Kingagroot Chemical Compound Co., Ltd., priority 2018, dated 2025)

Assays:
Format in all cases: in vivo
Echinochloa crusgalli = assay: Post-emergence test experiment, Echinochloa crusgalli; conditions: for Activity level (growth inhibition rate), Echinochloa crusgalli: 1000 g a.i./ha, 3 weeks in greenhouse, fresh weight inhibition; for inhibition at 200 g/ha: 200 g a.i./ha, weed resistant to ALS inhibitor and ACCe herbicides
In short: (§1)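 Greenhouse post-emergence spray at 2-3 leaf stage (2 wk after sowing); acetone/tween-80 formulation, methyl oleate EC synergist 1.5 L/ha, water-diluted. Plants held 3 wk, then fresh weight inhibition rate read.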

[1] = test system: Monocotyledonous and dicotyledonous weed seeds and main crop seeds; assay: Post-emergence test experiment, other weeds and crops (Table 4, 1000 g a.i./ha); conditions: 3 weeks in greenhouse, fresh weight inhibition
In short: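 Growth inhibition is scored on fresh weight. Spray solutions were made in acetone with tween-80, diluted in water, plus 1.5 L/ha methyl oleate emulsible concentrate. Plants from greenhouse-grown weed and crop seeds were treated post-emergence at 2-3 leaves, 2 weeks after sowing.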

Digitaria sanguinalis = assay: Post-emergence test experiment, Digitaria sanguinalis; conditions: for Activity level (growth inhibition rate), Digitaria sanguinalis: 1000 g a.i./ha, 3 weeks in greenhouse, fresh weight inhibition; for inhibition at 200 g/ha: 200 g a.i./ha, weed resistant to cyhalofop-butyl
In short: as §1

[2] = test system: Semen Euphorbiae Lathyridis; assay: Post-emergence test experiment, Semen Euphorbiae Lathyridis; conditions: 504 h, 3 weeks, read-out: Semen Euphorbiae Lathyridis, activity level (growth inhibition rate); for inhibition at 200 g/ha: 200 g a.i./ha, weed resistant to cyhalofop-butyl
Experimental: The above described growth inhibition rate is fresh weight inhibition rate.
Post-emergence test experiment: Monocotyledonous and dicotyledonous weed seeds and main crop seeds (i. e. wheat, corn, rice, soybean, cotton, oilseed, millet and sorghum.) were put into a plastic pot loaded with soil. Then covered with 0.5-2 cm soil, the seeds were allowed to grow in good greenhouse environment. The test plants were treated at 2-3 leaf stage 2 weeks after sowing. The test compounds of the invention were dissolved with acetone respectively, then added with tween-80, and using 1.5 liters per hectare of an emulsible concentrate of methyl oleate as a synergist, and diluted by certain amount of water to certain concentration. The solution was sprayed to the plants with a sprayer. Then the plants were cultured for 3 weeks in the greenhouse, and the experiment result of weed controlling effect was listed in tables 4-5.

[3] = Echinochloa crus-galli, 504 h, 3 weeks, read-out: Echinochloa crusgalli, activity level (growth inhibition rate)
[4] = Digitaria sanguinalis, 504 h, 3 weeks, read-out: Digitaria sanguinalis, activity level (growth inhibition rate)

Structure (SMILES) | Activity level (growth inhibition rate), Echinochloa crusgalli (Echinochloa crusgalli) | Activity level (growth inhibition rate), Abutilon theophrasti Medic. [1] | Activity level (growth inhibition rate), Galium aparine [1] | Activity level (growth inhibition rate), Monochoria Vaginalis [1] | Activity level (growth inhibition rate), Digitaria sanguinalis (Digitaria sanguinalis) | inhibition at 100 g/ha ([2]; 100 g a.i./ha, resistant weed) [%] | inhibition at 100 g/ha (Echinochloa crusgalli; Echinochloa crus-galli, 504 h, 100 g a.i./ha, 3 weeks, resistant weed, read-out: Echinochloa crusgalli, activity level (growth inhibition rate)) [%] | inhibition at 100 g/ha (Digitaria sanguinalis; Digitaria sanguinalis, 504 h, 100 g a.i./ha, 3 weeks, resistant weed, read-out: Digitaria sanguinalis, activity level (growth inhibition rate)) [%] | inhibition at 200 g/ha [2] [%] | inhibition at 200 g/ha (Echinochloa crusgalli; [3]) [%] | inhibition at 200 g/ha (Digitaria sanguinalis; [4]) [%]
C[C@@H](Oc1nc(F)c(Cl)c(N)c1Cl)C(=O)Sc1ccncc1 [Compound 2-363] | 5 (Level 5: the growth inhibition rate is greater than 85%) | 5 (Level 5: the growth inhibition rate is greater than 85%) | 5 (Level 5: the growth inhibition rate is greater than 85%) | 5 (Level 5: the growth inhibition rate is greater than 85%) | 5 (Level 5: the growth inhibition rate is greater than 85%) | – | – | – | – | – | –
Cc1cn(C)nc1SC(=O)[C@@H](C)Oc1nc(F)c(Cl)c(N)c1Cl [Compound 2-365] | 5 (Level 5: the growth inhibition rate is greater than 85%) | 5 (Level 5: the growth inhibition rate is greater than 85%) | 5 (Level 5: the growth inhibition rate is greater than 85%) | 5 (Level 5: the growth inhibition rate is greater than 85%) | 5 (Level 5: the growth inhibition rate is greater than 85%) | – | – | – | – | – | –
C[C@@H](Oc1nc(F)c(Cl)c(N)c1Cl)C(=O)Sc1cccn1C [Compound 2-368] | 5 (Level 5: the growth inhibition rate is greater than 85%) | 5 (Level 5: the growth inhibition rate is greater than 85%) | 5 (Level 5: the growth inhibition rate is greater than 85%) | 5 (Level 5: the growth inhibition rate is greater than 85%) | 5 (Level 5: the growth inhibition rate is greater than 85%) | – | – | – | – | – | –
CCOCOC(=O)[C@@H](C)Oc1nc(F)c(Cl)c(N)c1Cl [Compound 2-370] | 5 (Level 5: the growth inhibition rate is greater than 85%) | 5 (Level 5: the growth inhibition rate is greater than 85%) | 5 (Level 5: the growth inhibition rate is greater than 85%) | 5 (Level 5: the growth inhibition rate is greater than 85%) | 5 (Level 5: the growth inhibition rate is greater than 85%) | – | – | – | – | – | –
CC(Oc1nc(F)c(Cl)c(N)c1Cl)C(=O)OC(N)C(=O)O (centres unmarked) [Compound 2-371] | 5 (Level 5: the growth inhibition rate is greater than 85%) | 5 (Level 5: the growth inhibition rate is greater than 85%) | 5 (Level 5: the growth inhibition rate is greater than 85%) | 5 (Level 5: the growth inhibition rate is greater than 85%) | 5 (Level 5: the growth inhibition rate is greater than 85%) | – | – | – | – | – | –
COC(=O)C(NC(=O)OC(C)(C)C)OC(=O)C(C)Oc1nc(F)c(Cl)c(N)c1Cl (centres unmarked) [Compound 2-372] | 5 (Level 5: the growth inhibition rate is greater than 85%) | 5 (Level 5: the growth inhibition rate is greater than 85%) | 5 (Level 5: the growth inhibition rate is greater than 85%) | 5 (Level 5: the growth inhibition rate is greater than 85%) | 5 (Level 5: the growth inhibition rate is greater than 85%) | – | – | – | – | – | –
C[C@@H](Oc1nc(F)c(Cl)c(N)c1Cl)C(=O)SC(N)=O [Compound 2-373] | 5 (Level 5: the growth inhibition rate is greater than 85%) | 5 (Level 5: the growth inhibition rate is greater than 85%) | 5 (Level 5: the growth inhibition rate is greater than 85%) | 5 (Level 5: the growth inhibition rate is greater than 85%) | 5 (Level 5: the growth inhibition rate is greater than 85%) | – | – | – | – | – | –
CCNc1c(Cl)c(F)nc(O[C@H](C)C(=O)SC)c1Cl [Compound 2-376] | 5 (Level 5: the growth inhibition rate is greater than 85%) | 5 (Level 5: the growth inhibition rate is greater than 85%) | 5 (Level 5: the growth inhibition rate is greater than 85%) | 5 (Level 5: the growth inhibition rate is greater than 85%) | 5 (Level 5: the growth inhibition rate is greater than 85%) | – | – | – | – | – | –
COC(=O)[C@@H](C)Oc1nc(F)c(Cl)c(NC(C)=O)c1Cl [Compound 2-377] | 5 (Level 5: the growth inhibition rate is greater than 85%) | 5 (Level 5: the growth inhibition rate is greater than 85%) | 5 (Level 5: the growth inhibition rate is greater than 85%) | 5 (Level 5: the growth inhibition rate is greater than 85%) | 5 (Level 5: the growth inhibition rate is greater than 85%) | – | – | – | – | – | –
COC(=O)[C@@H](C)Oc1nc(F)c(Cl)c(NCc2ccco2)c1Cl [Compound 2-378] | 5 (Level 5: the growth inhibition rate is greater than 85%) | 5 (Level 5: the growth inhibition rate is greater than 85%) | 5 (Level 5: the growth inhibition rate is greater than 85%) | 5 (Level 5: the growth inhibition rate is greater than 85%) | 5 (Level 5: the growth inhibition rate is greater than 85%) | – | – | – | – | – | –
COC(=O)[C@@H](C)Oc1nc(F)c(Cl)c(NC(=O)c2ccccc2)c1Cl [Compound 2-379] | 5 (Level 5: the growth inhibition rate is greater than 85%) | 5 (Level 5: the growth inhibition rate is greater than 85%) | 5 (Level 5: the growth inhibition rate is greater than 85%) | 5 (Level 5: the growth inhibition rate is greater than 85%) | 5 (Level 5: the growth inhibition rate is greater than 85%) | – | – | – | – | – | –
CC(C)=NOCCOC(=O)[C@@H](C)Oc1nc(C)c(Cl)c(N)c1Cl [Compound 2-386] | 5 (Level 5: the growth inhibition rate is greater than 85%) | 5 (Level 5: the growth inhibition rate is greater than 85%) | 5 (Level 5: the growth inhibition rate is greater than 85%) | 5 (Level 5: the growth inhibition rate is greater than 85%) | 5 (Level 5: the growth inhibition rate is greater than 85%) | – | – | – | – | – | –
COC(=O)[C@@H](C)Oc1nc(F)c(Cl)c(NCc2ccc(C(F)(F)F)o2)c1Cl [Compound 2-387] | 5 (Level 5: the growth inhibition rate is greater than 85%) | 5 (Level 5: the growth inhibition rate is greater than 85%) | 5 (Level 5: the growth inhibition rate is greater than 85%) | 5 (Level 5: the growth inhibition rate is greater than 85%) | 5 (Level 5: the growth inhibition rate is greater than 85%) | – | – | – | – | – | –
COc1cc(OC)nc(Oc2cccc(Oc3nc(OC)cc(OC)n3)c2C(=O)O)n1 [bispyribac-sodium, reference compound] | – | – | – | – | – | < 5 | 5 to 20 | 5 to 20 | – | – | –
C[C@H](Oc1nc(Cl)c(Cl)c(N)c1Cl)C(=O)O [reference compound] | – | – | – | – | – | – | – | – | 5 to 20 | 5 to 20 | 5 to 20
C[C@H](Oc1nc(F)c(Cl)c(N)c1Cl)C(=O)O [reference compound] | – | – | – | – | – | – | – | – | 5 to 20 | 5 to 20 | 5 to 20
COC(=O)C(C)Oc1ncc(Cl)c(N)c1Cl (centres unmarked) [reference compound] | – | – | – | – | – | – | – | – | 20 to 40 | 20 to 40 | 40 to 60
COC(=O)[C@H](C)Oc1ncc(Cl)c(N)c1Cl [reference compound] | – | – | – | – | – | – | – | – | < 5 | < 5 | < 5
